# In patent US10040781B2, “Tank-binding kinase inhibitor compounds” (Gilead Sciences, Inc., priority 2014, dated 2018):
# Experiments:
# hJAK2 = hJAK2 (Homo sapiens (Human), UniProt O60674); assay: hJAK2 LANCE TR-FRET enzymatic assay; type: biochemical; conditions: read-out: JAK2 IC50
# TBK1 = TBK1 (Homo sapiens (Human), UniProt Q9UHD2); assay: TBK1 TR-FRET enzymatic assay;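 also: phosphorylation of a biotinylated Ser/Thr peptide by purified full-length recombinant TBK1, read by TR-FRET after 240 min at 25 °C, IC50 is the geometric mean of at least four runs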
# TBK1, sequence (Q9UHD2 whole entry): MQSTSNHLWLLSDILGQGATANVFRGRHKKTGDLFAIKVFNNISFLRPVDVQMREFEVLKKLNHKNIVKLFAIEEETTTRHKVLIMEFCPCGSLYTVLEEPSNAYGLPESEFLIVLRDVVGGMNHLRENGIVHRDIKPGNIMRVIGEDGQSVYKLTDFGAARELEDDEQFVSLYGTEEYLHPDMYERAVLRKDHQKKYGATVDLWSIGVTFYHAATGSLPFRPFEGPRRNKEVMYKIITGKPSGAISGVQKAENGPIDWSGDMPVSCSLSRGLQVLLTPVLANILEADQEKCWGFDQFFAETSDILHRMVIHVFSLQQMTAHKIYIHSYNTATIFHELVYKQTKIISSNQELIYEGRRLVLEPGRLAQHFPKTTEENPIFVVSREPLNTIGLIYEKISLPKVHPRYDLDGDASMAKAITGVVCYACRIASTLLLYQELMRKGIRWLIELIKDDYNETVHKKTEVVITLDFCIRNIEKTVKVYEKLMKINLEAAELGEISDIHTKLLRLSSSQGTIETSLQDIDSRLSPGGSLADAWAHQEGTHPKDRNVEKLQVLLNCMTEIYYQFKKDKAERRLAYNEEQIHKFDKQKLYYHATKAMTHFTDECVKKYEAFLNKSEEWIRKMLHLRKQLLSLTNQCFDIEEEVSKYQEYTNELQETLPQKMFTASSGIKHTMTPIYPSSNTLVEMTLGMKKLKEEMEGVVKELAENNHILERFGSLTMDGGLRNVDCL
# IKKε = IKKε (Homo sapiens (Human), UniProt Q14164); assay: IKKε TR-FRET enzymatic assay; type: biochemical; conditions: TR-FRET, 2×Km ATP; geometric mean of minimum four determinations; read-out: IKKe IC50
# IKKε, sequence (Q14164 whole entry): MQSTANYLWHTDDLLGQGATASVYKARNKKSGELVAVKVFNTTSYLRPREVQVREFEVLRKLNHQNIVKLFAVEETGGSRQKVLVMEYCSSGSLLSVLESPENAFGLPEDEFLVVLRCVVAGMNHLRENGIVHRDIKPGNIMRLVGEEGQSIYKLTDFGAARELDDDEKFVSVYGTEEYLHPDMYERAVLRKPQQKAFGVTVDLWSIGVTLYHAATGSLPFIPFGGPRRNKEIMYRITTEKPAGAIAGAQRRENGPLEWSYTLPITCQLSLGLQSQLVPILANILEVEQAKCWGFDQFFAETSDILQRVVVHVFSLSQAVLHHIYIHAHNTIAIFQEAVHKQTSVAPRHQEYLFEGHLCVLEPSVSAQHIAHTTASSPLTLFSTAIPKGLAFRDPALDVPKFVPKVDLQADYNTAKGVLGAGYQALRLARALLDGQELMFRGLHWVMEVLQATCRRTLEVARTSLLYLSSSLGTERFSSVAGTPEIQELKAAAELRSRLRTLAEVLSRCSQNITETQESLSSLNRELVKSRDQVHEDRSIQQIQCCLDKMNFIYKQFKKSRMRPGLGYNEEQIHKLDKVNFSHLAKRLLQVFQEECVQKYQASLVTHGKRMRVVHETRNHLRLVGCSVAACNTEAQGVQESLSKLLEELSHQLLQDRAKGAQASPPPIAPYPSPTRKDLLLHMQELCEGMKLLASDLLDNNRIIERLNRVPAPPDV
# hJAK2, sequence (O60674 whole entry): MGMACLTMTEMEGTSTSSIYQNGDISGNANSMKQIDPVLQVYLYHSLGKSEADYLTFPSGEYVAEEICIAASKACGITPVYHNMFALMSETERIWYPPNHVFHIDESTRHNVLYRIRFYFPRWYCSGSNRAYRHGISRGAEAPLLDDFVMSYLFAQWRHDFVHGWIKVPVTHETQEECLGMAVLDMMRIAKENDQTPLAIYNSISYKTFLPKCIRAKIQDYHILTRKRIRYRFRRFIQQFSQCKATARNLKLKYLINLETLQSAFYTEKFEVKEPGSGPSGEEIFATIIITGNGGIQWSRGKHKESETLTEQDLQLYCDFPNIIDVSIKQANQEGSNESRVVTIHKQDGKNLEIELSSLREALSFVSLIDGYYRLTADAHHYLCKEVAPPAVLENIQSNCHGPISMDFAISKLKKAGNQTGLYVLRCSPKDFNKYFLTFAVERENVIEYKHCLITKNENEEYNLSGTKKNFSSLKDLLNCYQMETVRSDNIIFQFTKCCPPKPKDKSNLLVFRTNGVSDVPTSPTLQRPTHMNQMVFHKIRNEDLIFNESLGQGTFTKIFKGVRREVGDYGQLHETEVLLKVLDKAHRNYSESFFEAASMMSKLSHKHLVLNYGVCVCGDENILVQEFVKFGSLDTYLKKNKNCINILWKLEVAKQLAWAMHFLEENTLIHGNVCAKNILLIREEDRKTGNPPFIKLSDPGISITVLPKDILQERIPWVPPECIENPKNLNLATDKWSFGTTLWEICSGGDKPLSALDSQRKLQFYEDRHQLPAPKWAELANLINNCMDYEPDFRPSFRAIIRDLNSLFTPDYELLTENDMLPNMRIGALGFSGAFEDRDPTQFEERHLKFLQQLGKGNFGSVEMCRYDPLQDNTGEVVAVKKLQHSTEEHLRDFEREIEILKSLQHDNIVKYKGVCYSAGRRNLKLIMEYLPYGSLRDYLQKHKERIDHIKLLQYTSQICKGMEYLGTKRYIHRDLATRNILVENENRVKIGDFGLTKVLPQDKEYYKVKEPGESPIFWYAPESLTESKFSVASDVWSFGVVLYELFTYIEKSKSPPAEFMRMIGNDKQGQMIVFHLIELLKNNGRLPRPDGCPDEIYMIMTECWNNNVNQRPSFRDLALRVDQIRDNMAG
Structure (SMILES),IC50 (hJAK2) [nM],IC50 (TBK1) [nM],IC50 (IKKε) [nM]
"N#Cc1cc(-c2ncnc(Nc3ccc(N4CCOCC4)cc3F)n2)ccc1O[C@H]1CCN(C(=O)[C@@H](O)CO)C[C@H]1F [Example 556, 2-(((3R,4S)-1-((S)-2,3-dihydroxypropanoyl)-3-fluoropiperidin-4-yl)oxy)-5-(4-((2-fluoro-4-morpholinophenyl)amino)-1,3,5-triazin-2-yl)benzonitrile]",≥ 1000,3,5
"N#Cc1cc(-c2ncnc(Nc3ccc(N4CCN(C5COC5)CC4)cc3)n2)ccc1O[C@H]1CCN(C(=O)c2cnc(N)[nH]2)C[C@H]1F [Example 559, 2-(((3R,4S)-1-(2-amino-1H-imidazole-5-carbonyl)-3-fluoropiperidin-4-yl)oxy)-5-(4-((4-(4-(oxetan-3-yl)piperazin-1-yl)phenyl)amino)-1,3,5-triazin-2-yl)benzonitrile]",83,5,2
"Cc1ncsc1Nc1ncnc(-c2ccc(O[C@H]3CCN(C(=O)CO)C[C@H]3F)c(C#N)c2)n1 [Example 563, 2-(((3R,4S)-3-fluoro-1-(2-hydroxyacetyl)piperidin-4-yl)oxy)-5-(4-((4-methylthiazol-5-yl)amino)-1,3,5-triazin-2-yl)benzonitrile]",≥ 1000,5,3
"C[C@H](O)C(=O)N1CC[C@H](Oc2ccc(-c3ncnc(Nc4cnn(C)c4CO)n3)cc2C#N)[C@H](F)C1 [Example 565, 2-(((3R,4S)-3-fluoro-1-((S)-2-hydroxypropanoyl)piperidin-4-yl)oxy)-5-(4-((5-(hydroxymethyl)-1-methyl-1H-pyrazol-4-yl)amino)-1,3,5-triazin-2-yl)benzonitrile]",≥ 1000,90,126
"Cc1c(Nc2ncnc(-c3ccc(O[C@H]4CCN(C(=O)[C@H](C)O)C[C@H]4F)c(C#N)c3)n2)cnn1C [Example 566, 5-(4-((1,5-dimethyl-1H-pyrazol-4-yl)amino)-1,3,5-triazin-2-yl)-2-(((3R,4S)-3-fluoro-1-((S)-2-hydroxypropanoyl)piperidin-4-yl)oxy)benzonitrile]",≥ 1000,14,33
"Cc1c(Nc2ncnc(-c3ccc(O[C@H]4CCN(C(=O)[C@@H](O)CO)C[C@H]4F)c(C#N)c3)n2)cnn1C [Example 567, 2-(((3R,4S)-1-((S)-2,3-dihydroxypropanoyl)-3-fluoropiperidin-4-yl)oxy)-5-(4-((1,5-dimethyl-1H-pyrazol-4-yl)amino)-1,3,5-triazin-2-yl)benzonitrile]",≥ 1000,3,7
"CCn1cc(Nc2ncnc(-c3ccc(O[C@H]4CCN(C(=O)[C@H](C)O)C[C@H]4F)c(C#N)c3)n2)c(C)n1 [Example 568, 5-(4-((1-ethyl-3-methyl-1H-pyrazol-4-yl)amino)-1,3,5-triazin-2-yl)-2-(((3R,4S)-3-fluoro-1-((S)-2-hydroxypropanoyl)piperidin-4-yl)oxy)benzonitrile]",≥ 1000,9,21
"CCn1cc(Nc2ncnc(-c3ccc(O[C@H]4CCN(C(=O)CO)C[C@H]4F)c(C#N)c3)n2)c(C)n1 [Example 569, 5-(4-((1-ethyl-3-methyl-1H-pyrazol-4-yl)amino)-1,3,5-triazin-2-yl)-2-(((3R,4S)-3-fluoro-1-(2-hydroxyacetyl)piperidin-4-yl)oxy)benzonitrile]",≥ 1000,4,6
"Cc1ncc(Nc2ncnc(-c3ccc(O[C@H]4CCN(C(=O)[C@H](C)O)C[C@H]4F)c(C#N)c3)n2)s1 [Example 570, 2-(((3R,4S)-3-fluoro-1-((S)-2-hydroxypropanoyl)piperidin-4-yl)oxy)-5-(4-((2-methylthiazol-5-yl)amino)-1,3,5-triazin-2-yl)benzonitrile]",≥ 1000,3,4
"Cc1nc(C)c(Nc2ncnc(-c3ccc(O[C@H]4CCN(C(=O)[C@H](C)O)C[C@H]4F)c(C#N)c3)n2)s1 [Example 571, 5-(4-((2,4-dimethylthiazol-5-yl)amino)-1,3,5-triazin-2-yl)-2-(((3R,4S)-3-fluoro-1-((S)-2-hydroxypropanoyl)piperidin-4-yl)oxy)benzonitrile]",≥ 1000,6,11
"C[C@H](O)C(=O)N1CC[C@H](Oc2ccc(-c3ncnc(Nc4scnc4CO)n3)cc2C#N)[C@H](F)C1 [Example 572, 2-(((3R,4S)-3-fluoro-1-((S)-2-hydroxypropanoyl)piperidin-4-yl)oxy)-5-(4-((4-(hydroxymethyl)thiazol-5-yl)amino)-1,3,5-triazin-2-yl)benzonitrile]",≥ 1000,36,21
"C[C@H](O)CN1CCN(c2ccc(Nc3ncnc(-c4ccc(O[C@H]5CCN(C(=O)[C@H](C)O)C[C@H]5F)c(C#N)c4)n3)cc2)CC1 [Example 573, 2-(((3R,4S)-3-fluoro-1-((S)-2-hydroxypropanoyl)piperidin-4-yl)oxy)-5-(4-((4-(4-((S)-2-hydroxypropyl)piperazin-1-yl)phenyl)amino)-1,3,5-triazin-2-yl)benzonitrile]",969,3,1
"N#Cc1cc(-c2ncnc(Nc3ccc(N4CCN(C5COC5)CC4)cc3)n2)ccc1O[C@H]1CCN(C(=O)[C@@H](O)CO)CC1(F)F [Example 581, 2-(((S)-1-((S)-2,3-dihydroxypropanoyl)-3,3-difluoropiperidin-4-yl)oxy)-5-(4-((4-(4-(oxetan-3-yl)piperazin-1-yl)phenyl)amino)-1,3,5-triazin-2-yl)benzonitrile]",86,2,1
"N#Cc1cc(-c2ncnc(Nc3ccc(N4CCN(C5COC5)CC4)cc3)n2)ccc1O[C@H]1CCN(C(=O)[C@H](O)CO)CC1(F)F [Example 582, 2-(((S)-1-((R)-2,3-dihydroxypropanoyl)-3,3-difluoropiperidin-4-yl)oxy)-5-(4-((4-(4-(oxetan-3-yl)piperazin-1-yl)phenyl)amino)-1,3,5-triazin-2-yl)benzonitrile]",98,2,1
"C[C@H](O)C(=O)N1CC[C@H](Oc2ccc(-c3ncnc(Nc4ccc(N5CCN(CCO)CC5)cc4)n3)cc2C#N)[C@H](F)C1 [Example 583, 2-(((3R,4S)-3-fluoro-1-((S)-2-hydroxypropanoyl)piperidin-4-yl)oxy)-5-(4-((4-(4-(2-hydroxyethyl)piperazin-1-yl)phenyl)amino)-1,3,5-triazin-2-yl)benzonitrile]",479,2,1

# Now from value to compound:
IC50 (hJAK2) [nM],IC50 (TBK1) [nM],IC50 (IKKε) [nM],Structure (SMILES)
917,6,4,"COCC(O)C(=O)N1CC[C@H](Oc2ccc(-c3ncnc(Nc4ccc(N5CCN(C6COC6)CC5)cc4)n3)cc2C#N)[C@H](F)C1 (stereo partly drawn) [Example 557, 2-(((3R,4S)-3-fluoro-1-(2-hydroxy-3-methoxypropanoyl)piperidin-4-yl)oxy)-5-(4-((4-(4-(oxetan-3-yl)piperazin-1-yl)phenyl)amino)-1,3,5-triazin-2-yl)benzonitrile]"
18,2,1,"COc1cc(Nc2ncnc(-c3ccc(O[C@H]4CCN(C(=O)CO)CC4(F)F)c(C#N)c3)n2)ccc1N1CCN(C2COC2)CC1 [Example 560, (S)-2-((3,3-difluoro-1-(2-hydroxyacetyl)piperidin-4-yl)oxy)-5-(4-((3-methoxy-4-(4-(oxetan-3-yl)piperazin-1-yl)phenyl)amino)-1,3,5-triazin-2-yl)benzonitrile]"
68,2,1,"COc1cc(Nc2ncnc(-c3ccc(O[C@H]4CCN(C(=O)[C@H](C)O)CC4(F)F)c(C#N)c3)n2)ccc1N1CCN(C2COC2)CC1 [Example 561, 2-(((S)-3,3-difluoro-1-((S)-2-hydroxypropanoyl)piperidin-4-yl)oxy)-5-(4-((3-methoxy-4-(4-(oxetan-3-yl)piperazin-1-yl)phenyl)amino)-1,3,5-triazin-2-yl)benzonitrile]"
110,3,6,"COc1cc(Nc2ncnc(-c3ccc(O[C@H]4CCN(C(=O)CCO)C[C@H]4F)c(C#N)c3)n2)ccc1N1CCN(C2COC2)CC1 [Example 562, 2-(((3R,4S)-3-fluoro-1-(3-hydroxypropanoyl)piperidin-4-yl)oxy)-5-(4-((3-methoxy-4-(4-(oxetan-3-yl)piperazin-1-yl)phenyl)amino)-1,3,5-triazin-2-yl)benzonitrile]"
≥ 1000,92,109,"C[C@H](O)C(=O)N1CC[C@H](Oc2ccc(-c3ncnc(Nc4cn(C)nc4CO)n3)cc2C#N)[C@H](F)C1 [Example 564, 2-(((3R,4S)-3-fluoro-1-((S)-2-hydroxyproanoyl)piperidin-4-yl)oxy)-5-(4-((3-(hydroxymethyl)-1-methyl-1H-pyrazol-4-yl)amino)-1,3,5-triazin-2-yl)benzonitrile]"
354,2,2,"CC(C)n1cc(Nc2ncnc(-c3ccc(O[C@H]4CCN(C(=O)[C@@H](O)CO)C[C@H]4F)c(C#N)c3)n2)cn1 [Example 574, 2-(((3R,4S)-1-((S)-2,3-dihydroxypropanoyl)-3-fluoropiperidin-4-yl)oxy)-5-(4-((1-isopropyl-1H-pyrazol-4-yl)amino)-1,3,5-triazin-2-yl)benzonitrile]"
165,2,1,"N#Cc1cc(-c2ncnc(Nc3ccc(N4CCN(C5COC5)CC4)cc3)n2)ccc1O[C@H]1CCN(C(=O)C(O)CO)CC1(F)F (stereo partly drawn) [Example 580, 2-(((4S)-1-(2,3-dihydroxypropanoyl)-3,3-difluoropiperidin-4-yl)oxy)-5-(4-((4-(4-(oxetan-3-yl)piperazin-1-yl)phenyl)amino)-1,3,5-triazin-2-yl)benzonitrile]"
